Legend:
[1] = system: blanching in humans; experiment: McKenzie-type human blanching studies; format: in vivo; details: forearm, 6 hours occlusion
Method: McKenzie-type human blanching studies were undertaken to study the blanching effects of a representative test compound of the invention, chloromethyl 17α-ethoxycarbonyloxy-11β-hydroxyandrost-4-en-3-one-17β-carboxylate.
The test compound was dissolved in ethanol/isopropyl myristate (90/10 or 70/30) at 0.03, 0.01, 0.003, 0.001 and 0.0003 M concentrations. 50 Microliter aliquots of each solution were applied to separate gauze portions of a bandage of the type commonly used for allergy testing and the bandage was applied to the forearm. After 6 hours of occlusion, the bandage was removed.

[2] = system: thymus weight in rats; experiment: Thymus involution test (topically administered steroids, thymus weight in rats)
Method: The test animals were female Sprague/Dawley rats weighing approximately 40-45 grams each. One side of each ear of each rat was treated with a total of 25 microliters of a solution (ethanol/isopropyl myristate or acetone/isopropyl myristate, 90/10) containing the amount of test compound indicated below. Animals which were treated identically, save for omission of the test compound, served as controls. After 24 hours, all rats were sacrificed and weighed, and their thymi were removed and weighed.
The lower the weight of the thymi, the greater the systemic activity.

[3] = 0.75 μmol topical on ear, after 24 hours

Total Weight per Rat, % Gain ± SD [2, 3]: 24 ± 7% | Total Weight per Rat, Final [2, 3]: 61.15 g | mg Thymus ± SD / 100 g Rat [2, 3]: 274 ± 45 mg/100 g
Compound: C[C@]12CCC(=O)C=C1CC[C@@H]1[C@@H]2[C@@H](O)C[C@@]2(C)[C@H]1CC[C@]2(O)C(=O)CO [Hydrocortisone]
blanching ([1]; 0.03 to 0.0003 M, 50 microliter, read 1 to 5 hours after removal): blanching was not observed at concentrations of hydrocortisone below 0.03 M | concentration causing approximately the same degree of blanching ([1]; direct comparison): ~0.03 M | decrease in thymus weight compared to the control (in words) ([2]; 0.75 μmol topical): causes a significant decrease in thymus weight compared to the control

From patent US6610675B1 (priority 1980, dated 2003)
